The source of these data is the supplement of paper PMC12076712.

Structures are written as SMILES.

As usually defined, the pIC50 is the IC50 on a negative log10 scale, so that one unit is a factor of ten. Read a low pIC50 as a high IC50.

What all share (test): pIC50, kinobeads binding competition
For experiment [1], the target named is T1, EPHA1 (UniProt P21709).
T1 sequence (whole entry): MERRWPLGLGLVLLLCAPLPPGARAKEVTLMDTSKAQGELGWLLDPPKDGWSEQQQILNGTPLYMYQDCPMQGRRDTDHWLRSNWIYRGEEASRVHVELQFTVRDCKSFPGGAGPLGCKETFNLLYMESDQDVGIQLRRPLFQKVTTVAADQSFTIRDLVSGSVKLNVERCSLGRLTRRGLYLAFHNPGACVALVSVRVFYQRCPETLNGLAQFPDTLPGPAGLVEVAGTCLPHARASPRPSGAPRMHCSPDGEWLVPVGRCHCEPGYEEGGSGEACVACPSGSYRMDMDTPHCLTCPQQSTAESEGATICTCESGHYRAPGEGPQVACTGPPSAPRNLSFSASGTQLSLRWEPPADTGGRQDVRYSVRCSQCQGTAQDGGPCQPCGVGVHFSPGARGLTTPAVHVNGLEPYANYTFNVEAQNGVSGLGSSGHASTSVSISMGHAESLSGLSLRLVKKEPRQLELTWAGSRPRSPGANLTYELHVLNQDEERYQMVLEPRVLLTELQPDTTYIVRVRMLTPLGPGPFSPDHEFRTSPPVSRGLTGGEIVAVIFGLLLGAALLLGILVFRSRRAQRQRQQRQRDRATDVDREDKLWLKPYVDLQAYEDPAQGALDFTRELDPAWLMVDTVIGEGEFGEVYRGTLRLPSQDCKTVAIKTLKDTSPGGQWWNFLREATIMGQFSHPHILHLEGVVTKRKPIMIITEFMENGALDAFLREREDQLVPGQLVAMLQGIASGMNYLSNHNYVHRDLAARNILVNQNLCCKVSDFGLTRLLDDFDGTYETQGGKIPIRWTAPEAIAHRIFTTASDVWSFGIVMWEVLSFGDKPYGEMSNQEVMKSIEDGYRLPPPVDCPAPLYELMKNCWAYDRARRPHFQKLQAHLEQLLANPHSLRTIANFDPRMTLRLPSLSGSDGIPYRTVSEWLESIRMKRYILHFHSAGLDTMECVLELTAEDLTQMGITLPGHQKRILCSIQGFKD
As to conditions: cell material: Lysate mix. The method, boiled down: (§1)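 Fold changes relative to vehicle, from biological duplicates, were fitted with logistic dose-response models in the R drc package to give pIC50. These fold changes came from TMT10 LC-MS/MS quantification of digested Kinobeads-bound proteins. Compound was applied at nine concentrations (top 30 μM) either to live Jurkat cells in 1:4 steps for 60 min at 37 °C before lysis, or to Jurkat lysate or a 1:1:1:1 HEK293/K-562/HepG2/placenta lysate mix in 1:5 steps for 60 min at 4 °C.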

Experiment [2] deals with TNIK (UniProt Q9UKE5). Summed up: as §1
Chain of TNIK (Q9UKE5 whole entry, looked up): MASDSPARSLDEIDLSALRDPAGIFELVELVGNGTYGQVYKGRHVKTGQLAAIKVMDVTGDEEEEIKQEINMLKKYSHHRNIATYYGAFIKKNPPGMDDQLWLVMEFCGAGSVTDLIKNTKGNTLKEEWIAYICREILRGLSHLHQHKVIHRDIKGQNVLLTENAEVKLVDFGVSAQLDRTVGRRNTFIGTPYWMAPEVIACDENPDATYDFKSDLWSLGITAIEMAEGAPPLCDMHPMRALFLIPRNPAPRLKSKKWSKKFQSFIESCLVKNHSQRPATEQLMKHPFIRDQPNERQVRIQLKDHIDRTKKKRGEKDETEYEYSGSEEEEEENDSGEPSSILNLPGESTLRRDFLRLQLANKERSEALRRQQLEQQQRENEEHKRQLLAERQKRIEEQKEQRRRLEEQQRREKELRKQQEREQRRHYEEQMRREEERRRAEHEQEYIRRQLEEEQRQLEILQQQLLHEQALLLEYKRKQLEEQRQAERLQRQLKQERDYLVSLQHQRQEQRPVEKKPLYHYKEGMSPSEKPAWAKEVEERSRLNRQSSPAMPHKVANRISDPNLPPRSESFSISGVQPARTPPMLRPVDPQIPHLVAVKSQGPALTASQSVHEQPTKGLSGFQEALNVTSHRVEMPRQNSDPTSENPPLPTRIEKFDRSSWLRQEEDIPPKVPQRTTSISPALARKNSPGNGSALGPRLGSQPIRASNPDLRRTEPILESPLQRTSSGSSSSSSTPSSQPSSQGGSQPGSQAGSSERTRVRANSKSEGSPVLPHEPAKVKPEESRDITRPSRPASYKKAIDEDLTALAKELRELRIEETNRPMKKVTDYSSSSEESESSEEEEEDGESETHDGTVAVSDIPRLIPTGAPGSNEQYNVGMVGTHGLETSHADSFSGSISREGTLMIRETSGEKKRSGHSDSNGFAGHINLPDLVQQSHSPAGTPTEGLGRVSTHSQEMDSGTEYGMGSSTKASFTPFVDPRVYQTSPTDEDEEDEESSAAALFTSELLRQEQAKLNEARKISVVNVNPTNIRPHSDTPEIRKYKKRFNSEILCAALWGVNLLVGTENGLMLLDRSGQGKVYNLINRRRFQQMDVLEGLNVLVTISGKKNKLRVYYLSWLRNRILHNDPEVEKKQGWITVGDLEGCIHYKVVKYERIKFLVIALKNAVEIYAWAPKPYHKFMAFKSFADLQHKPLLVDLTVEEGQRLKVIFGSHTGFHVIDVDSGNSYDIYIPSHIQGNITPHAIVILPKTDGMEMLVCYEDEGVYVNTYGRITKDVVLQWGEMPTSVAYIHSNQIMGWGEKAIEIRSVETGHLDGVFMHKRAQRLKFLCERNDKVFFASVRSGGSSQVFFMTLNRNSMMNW
For experiment [3], the target named is T2, KSR1 (UniProt Q8IVT5).
T2 sequence (whole entry): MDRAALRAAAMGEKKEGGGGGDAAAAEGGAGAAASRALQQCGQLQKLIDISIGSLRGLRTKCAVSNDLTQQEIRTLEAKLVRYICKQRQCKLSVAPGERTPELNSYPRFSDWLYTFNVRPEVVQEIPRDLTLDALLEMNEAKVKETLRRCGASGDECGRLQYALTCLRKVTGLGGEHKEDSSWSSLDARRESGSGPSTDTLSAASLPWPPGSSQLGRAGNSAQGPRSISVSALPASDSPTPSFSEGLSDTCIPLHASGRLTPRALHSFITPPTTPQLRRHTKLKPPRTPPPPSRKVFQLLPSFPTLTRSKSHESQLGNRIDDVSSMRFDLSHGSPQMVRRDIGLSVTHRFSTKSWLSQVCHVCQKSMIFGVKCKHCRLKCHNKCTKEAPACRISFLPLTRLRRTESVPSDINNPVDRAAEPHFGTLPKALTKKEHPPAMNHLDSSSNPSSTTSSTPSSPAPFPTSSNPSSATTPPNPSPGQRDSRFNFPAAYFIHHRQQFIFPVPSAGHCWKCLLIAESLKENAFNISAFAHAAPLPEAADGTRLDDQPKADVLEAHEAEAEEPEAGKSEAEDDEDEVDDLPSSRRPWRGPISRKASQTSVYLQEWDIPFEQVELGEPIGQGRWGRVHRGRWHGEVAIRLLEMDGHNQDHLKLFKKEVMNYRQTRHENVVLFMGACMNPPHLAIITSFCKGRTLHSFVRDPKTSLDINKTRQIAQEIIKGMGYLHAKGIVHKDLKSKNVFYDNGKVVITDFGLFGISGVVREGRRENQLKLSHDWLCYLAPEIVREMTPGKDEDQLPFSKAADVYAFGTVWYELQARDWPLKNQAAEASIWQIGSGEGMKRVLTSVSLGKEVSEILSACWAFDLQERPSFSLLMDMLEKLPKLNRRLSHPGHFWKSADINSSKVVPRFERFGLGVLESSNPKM
The method, boiled down:
as §1

In experiment [4] the target is T3, UniProt P52564.
T3 sequence (whole entry): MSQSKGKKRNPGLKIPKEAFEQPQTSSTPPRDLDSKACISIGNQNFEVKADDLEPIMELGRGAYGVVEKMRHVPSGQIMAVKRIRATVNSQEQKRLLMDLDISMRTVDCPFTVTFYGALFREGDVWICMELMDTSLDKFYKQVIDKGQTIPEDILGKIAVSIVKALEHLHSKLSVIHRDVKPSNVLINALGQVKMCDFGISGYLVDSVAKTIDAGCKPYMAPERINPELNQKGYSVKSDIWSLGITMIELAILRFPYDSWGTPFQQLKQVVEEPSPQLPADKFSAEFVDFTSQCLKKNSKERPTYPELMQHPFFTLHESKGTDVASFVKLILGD
Summed up:
as §1

In experiment [5] the target is Fes (UniProt P07332). As to conditions: cell material: Lysate mix. Summed up: as §1
Experiment [6] concerns the target UniProt O95747. Summed up:
as §1

Experiment [7] concerns the target UniProt Q00537. Summed up:
as §1

Experiment [8] concerns the target UniProt Q9Y6M4. As to conditions: cell material: Lysate mix. Summed up:
as §1

Experiment [9] deals with UniProt Q9HCP0. Summed up: as §1
Chain of UniProt Q9HCP0 (Q9HCP0 whole entry, looked up): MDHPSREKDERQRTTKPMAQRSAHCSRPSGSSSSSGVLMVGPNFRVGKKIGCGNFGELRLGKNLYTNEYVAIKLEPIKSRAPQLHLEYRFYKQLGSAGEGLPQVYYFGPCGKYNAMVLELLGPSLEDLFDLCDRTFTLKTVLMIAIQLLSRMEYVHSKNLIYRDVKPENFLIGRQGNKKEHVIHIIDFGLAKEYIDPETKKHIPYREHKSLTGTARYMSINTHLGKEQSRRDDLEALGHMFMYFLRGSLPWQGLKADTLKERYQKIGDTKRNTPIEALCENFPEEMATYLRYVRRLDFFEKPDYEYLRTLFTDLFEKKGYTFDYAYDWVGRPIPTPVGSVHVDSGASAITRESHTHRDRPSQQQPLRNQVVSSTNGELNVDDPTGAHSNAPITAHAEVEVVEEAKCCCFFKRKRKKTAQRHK
For experiment [10], the target named is CDK10 (UniProt Q15131). Summed up:
as §1

Experiment [11] has as its target RPS6KA4 (UniProt O75676). The method, boiled down:
as §1

Experiment [12] concerns the target DAPK1 (UniProt P53355). The note with it: cell material: Lysate mix. The method, boiled down:
as §1

For experiment [13], the target named is BTK (UniProt Q06187). The note with it: cell material: Lysate mix. The method, boiled down: as §1

Chain of CDK10 (Q15131 whole entry): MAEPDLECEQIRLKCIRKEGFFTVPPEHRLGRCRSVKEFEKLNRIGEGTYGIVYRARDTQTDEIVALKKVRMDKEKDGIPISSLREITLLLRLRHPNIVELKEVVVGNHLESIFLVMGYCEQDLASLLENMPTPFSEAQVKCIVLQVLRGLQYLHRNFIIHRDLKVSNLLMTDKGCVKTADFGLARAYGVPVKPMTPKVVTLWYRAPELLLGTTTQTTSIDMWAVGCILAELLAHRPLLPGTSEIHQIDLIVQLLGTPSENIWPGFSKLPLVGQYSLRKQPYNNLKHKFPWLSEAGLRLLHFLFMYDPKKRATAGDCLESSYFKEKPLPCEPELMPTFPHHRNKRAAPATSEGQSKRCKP
Chain of RPS6KA4 (O75676 whole entry, looked up): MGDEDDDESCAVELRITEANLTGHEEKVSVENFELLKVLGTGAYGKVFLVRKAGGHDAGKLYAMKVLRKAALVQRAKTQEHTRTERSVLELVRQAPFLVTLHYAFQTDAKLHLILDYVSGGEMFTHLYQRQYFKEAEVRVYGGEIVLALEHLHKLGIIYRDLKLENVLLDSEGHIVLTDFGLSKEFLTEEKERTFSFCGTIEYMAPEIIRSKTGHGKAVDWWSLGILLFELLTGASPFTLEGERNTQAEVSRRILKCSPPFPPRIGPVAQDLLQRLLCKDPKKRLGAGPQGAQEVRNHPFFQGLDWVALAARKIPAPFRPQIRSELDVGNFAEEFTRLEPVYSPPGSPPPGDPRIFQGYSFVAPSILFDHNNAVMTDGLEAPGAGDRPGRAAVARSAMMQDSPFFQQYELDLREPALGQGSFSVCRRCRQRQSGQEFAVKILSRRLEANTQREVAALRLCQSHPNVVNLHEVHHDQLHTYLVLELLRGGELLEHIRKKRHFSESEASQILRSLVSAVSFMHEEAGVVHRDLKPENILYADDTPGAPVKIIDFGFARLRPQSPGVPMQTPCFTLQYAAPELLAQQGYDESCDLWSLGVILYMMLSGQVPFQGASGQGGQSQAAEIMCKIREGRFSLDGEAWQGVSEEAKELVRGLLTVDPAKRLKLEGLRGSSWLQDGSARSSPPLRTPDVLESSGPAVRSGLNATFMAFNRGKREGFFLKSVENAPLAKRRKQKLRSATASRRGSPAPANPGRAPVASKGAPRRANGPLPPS
Chain of DAPK1 (P53355 whole entry, looked up): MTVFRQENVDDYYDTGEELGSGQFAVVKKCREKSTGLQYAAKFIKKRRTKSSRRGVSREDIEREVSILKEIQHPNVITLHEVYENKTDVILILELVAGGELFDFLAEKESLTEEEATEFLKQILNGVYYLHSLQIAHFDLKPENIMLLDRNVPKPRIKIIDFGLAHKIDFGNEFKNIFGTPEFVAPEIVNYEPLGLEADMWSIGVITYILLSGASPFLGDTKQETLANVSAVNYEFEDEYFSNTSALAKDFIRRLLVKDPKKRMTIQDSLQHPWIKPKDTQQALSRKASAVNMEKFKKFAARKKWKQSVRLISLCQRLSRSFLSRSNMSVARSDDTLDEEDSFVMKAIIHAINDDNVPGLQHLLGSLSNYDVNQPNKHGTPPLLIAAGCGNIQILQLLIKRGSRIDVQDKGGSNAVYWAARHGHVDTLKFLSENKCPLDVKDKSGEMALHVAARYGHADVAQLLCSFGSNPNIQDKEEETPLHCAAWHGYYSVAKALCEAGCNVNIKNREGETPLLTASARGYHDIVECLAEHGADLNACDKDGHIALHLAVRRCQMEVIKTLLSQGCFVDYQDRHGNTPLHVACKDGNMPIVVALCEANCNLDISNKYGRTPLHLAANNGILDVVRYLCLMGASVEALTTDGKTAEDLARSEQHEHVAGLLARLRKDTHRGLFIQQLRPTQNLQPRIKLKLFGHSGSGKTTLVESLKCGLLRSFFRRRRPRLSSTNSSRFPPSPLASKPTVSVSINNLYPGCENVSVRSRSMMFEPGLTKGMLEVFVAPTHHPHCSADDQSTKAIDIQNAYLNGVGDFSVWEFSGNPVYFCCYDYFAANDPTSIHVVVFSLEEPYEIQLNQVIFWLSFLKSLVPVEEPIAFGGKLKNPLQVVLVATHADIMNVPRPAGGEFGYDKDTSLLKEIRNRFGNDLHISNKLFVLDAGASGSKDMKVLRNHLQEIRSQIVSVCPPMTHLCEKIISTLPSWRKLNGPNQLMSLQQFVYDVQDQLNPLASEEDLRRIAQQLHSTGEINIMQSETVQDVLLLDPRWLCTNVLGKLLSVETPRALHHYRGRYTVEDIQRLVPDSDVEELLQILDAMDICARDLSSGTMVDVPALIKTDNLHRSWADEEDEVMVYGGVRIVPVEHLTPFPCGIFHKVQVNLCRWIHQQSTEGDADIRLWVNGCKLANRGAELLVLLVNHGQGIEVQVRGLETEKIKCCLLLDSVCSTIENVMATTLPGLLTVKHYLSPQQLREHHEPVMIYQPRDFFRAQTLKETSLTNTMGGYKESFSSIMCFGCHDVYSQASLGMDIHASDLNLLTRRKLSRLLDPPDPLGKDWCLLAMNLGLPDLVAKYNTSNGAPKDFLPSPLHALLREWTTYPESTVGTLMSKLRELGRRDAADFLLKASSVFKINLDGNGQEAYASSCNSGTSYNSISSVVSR
Chain of UniProt Q00537 (Q00537 whole entry, looked up): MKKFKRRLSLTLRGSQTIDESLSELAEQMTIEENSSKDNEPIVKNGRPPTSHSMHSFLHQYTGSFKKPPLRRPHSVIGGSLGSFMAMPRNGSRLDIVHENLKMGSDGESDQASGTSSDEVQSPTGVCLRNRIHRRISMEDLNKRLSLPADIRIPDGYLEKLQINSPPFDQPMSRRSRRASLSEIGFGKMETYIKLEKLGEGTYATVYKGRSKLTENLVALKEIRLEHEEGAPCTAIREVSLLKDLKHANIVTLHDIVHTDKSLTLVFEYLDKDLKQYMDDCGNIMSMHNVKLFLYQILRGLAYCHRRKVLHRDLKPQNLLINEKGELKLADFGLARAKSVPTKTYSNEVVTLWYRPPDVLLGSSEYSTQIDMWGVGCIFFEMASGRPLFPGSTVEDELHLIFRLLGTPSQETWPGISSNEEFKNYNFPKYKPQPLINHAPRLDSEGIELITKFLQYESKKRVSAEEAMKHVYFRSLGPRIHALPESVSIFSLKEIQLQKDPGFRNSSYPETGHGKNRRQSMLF

In the case of `O=C(NCCNC(=O)c1cc(Nc2cc(C3CC3)[nH]n2)nc(N2CCN(Cc3ccc(S(=O)(=O)F)cc3)CC2)n1)OC1CC/C=C/CCC1` (stereo unspecified), the pIC50 in experiment [1] is below 4.52; in [2] (cell material: Jurkat cells), 5.6; in [2] (cell material: Jurkat lysate) it was below 4.52; in experiment [2] (cell material: Lysate mix), below 4.52; in experiment [3] (cell material: Jurkat cells), below 4.52; in experiment [3] (cell material: Jurkat lysate), below 4.52. Further, the pIC50 was below 4.52 in [3] (cell material: Lysate mix); below 4.52 in experiment [4] (cell material: Jurkat cells); below 4.52 in [4] (cell material: Jurkat lysate); below 4.52 in experiment [4] (cell material: Lysate mix); below 4.52 in experiment [5]; 5.3 in experiment [6] (cell material: Jurkat cells). Further, the pIC50 in [6] (cell material: Jurkat lysate) was below 4.52; in experiment [6] (cell material: Lysate mix) it was below 4.52; in experiment [7] (cell material: Jurkat cells), 5.68; in experiment [7] (cell material: Jurkat lysate), below 4.52; in [7] (cell material: Lysate mix), below 4.52; in [8] it was below 4.52. The pIC50 was below 4.52 in [9] (cell material: Jurkat lysate); below 4.52 in [9] (cell material: Lysate mix); 6.06 in experiment [10] (cell material: Jurkat cells); below 4.52 in [10] (cell material: Lysate mix); 5.8 in experiment [11] (cell material: Jurkat cells); below 4.52 in experiment [11] (cell material: Jurkat lysate). Moreover, the pIC50 in experiment [11] (cell material: Lysate mix), in experiment [12] and in experiment [13] was below 4.52 in each case.
`Cc1cc(Nc2cc(C(=O)NCCNC(=O)OC3CC/C=C/CCC3)nc(N3CCN(Cc4ccc(S(=O)(=O)F)cc4)CC3)n2)n[nH]1` (stereo unspecified): the pIC50 in [1], in experiment [2] (cell material: Lysate mix), in experiment [3] (cell material: Lysate mix), in experiment [4] (cell material: Lysate mix), in experiment [5] and in experiment [6] (cell material: Lysate mix) was below 4.52 in each case. Also, the pIC50 in experiment [7] (cell material: Lysate mix), in experiment [9] (cell material: Lysate mix), in [10] (cell material: Lysate mix), in [11] (cell material: Lysate mix), in [12] and in experiment [13] was below 4.52 each time.
`CCNC(=O)c1cc(Nc2cc(C)[nH]n2)nc(N2CCN(Cc3ccc(S(=O)(=O)F)cc3)CC2)n1`: the pIC50 in experiment [1] is below 4.52; in experiment [2] (cell material: Lysate mix) it was below 4.52; in experiment [3] (cell material: Lysate mix), below 4.52; in [4] (cell material: Lysate mix), 4.62; in experiment [5], below 4.52; in [6] (cell material: Lysate mix) it was below 4.52. Moreover, the pIC50 in experiment [8], in experiment [9] (cell material: Lysate mix) and in experiment [13] was below 4.52 throughout.
With `C#CCNC(=O)c1cc(Nc2cc(C3CC3)[nH]n2)nc(N2CCN(Cc3ccc(S(=O)(=O)F)cc3)CC2)n1`, the pIC50 is 4.66 in experiment [1]; below 4.52 in [2] (cell material: Jurkat lysate); 5.27 in [2] (cell material: Lysate mix); 5.61 in experiment [4] (cell material: Jurkat cells); below 4.52 in experiment [4] (cell material: Jurkat lysate); 5.21 in experiment [4] (cell material: Lysate mix). Besides, the pIC50 in experiment [5] turned out to be 5.24; in [6] (cell material: Jurkat cells), 6.16; in experiment [6] (cell material: Jurkat lysate), 5.4; in experiment [6] (cell material: Lysate mix), 5.54; in [7] (cell material: Jurkat cells) it was 6.39; in experiment [7] (cell material: Jurkat lysate), 5.11. In addition, the pIC50 in experiment [7] (cell material: Lysate mix) is 5.7; in experiment [8] it was below 4.52; in experiment [9] (cell material: Jurkat cells) it was 5.12; in experiment [9] (cell material: Jurkat lysate) it was below 4.52; in experiment [10] (cell material: Jurkat cells) it was 6.16; in experiment [10] (cell material: Jurkat lysate), 6.04. Moreover, the pIC50 was 5.82 in experiment [10] (cell material: Lysate mix); 5.84 in experiment [11] (cell material: Jurkat cells); 4.83 in [11] (cell material: Jurkat lysate); 5.56 in [11] (cell material: Lysate mix); below 4.52 in [12].
Turning to `C#CCNC(=O)c1cc(Nc2cc(C)[nH]n2)nc(N2CCN(Cc3ccc(S(=O)(=O)F)cc3)CC2)n1`, the pIC50 was below 4.52 in experiment [1]; below 4.52 in experiment [3] (cell material: Lysate mix); below 4.52 in experiment [5]; below 4.52 in experiment [7] (cell material: Lysate mix); below 4.52 in experiment [9] (cell material: Lysate mix); 4.84 in experiment [11] (cell material: Lysate mix). The pIC50 in experiment [12] and in experiment [13] was below 4.52 throughout.
As for `CCNC(=O)c1cc(Nc2cc(C3CC3)[nH]n2)nc(N2CCN(Cc3ccc(S(=O)(=O)F)cc3)CC2)n1`, the pIC50 in experiment [4] (cell material: Lysate mix) came to 5.2; in [6] (cell material: Lysate mix), 5.24; in experiment [7] (cell material: Lysate mix), 5.52; in [8], 4.89; in experiment [10] (cell material: Lysate mix), 5.29; in experiment [11] (cell material: Lysate mix) it was 5.34. Moreover, the pIC50 in experiment [12] came to 4.6.
